Structures are written as SMILES.

Experimental findings from publication PMC9458111, “New 1,2,3-Triazole-Coumarin-Glycoside Hybrids and Their 1,2,4-Triazolyl Thioglycoside Analogs Targeting Mitochondria Apoptotic Pathway: Synthesis, Anticancer Activity and Docking Simulation” (Molecules, 2022) are described below.

Data set [1] deals with normal human skin cell lines BJ-1. Nature of the data set: Safety on normal human skin cells BJ-1 (MTT). In kind it is cell-based. Conditions: 100 µM. The procedure:
To determine the selectivity and safety, all tested compounds were subjected to an assay for their safety upon normal human skin cell lines BJ-1 at a concentration of 100 µM.
(§1) Human osteosarcoma (HOS cell line), human breast adenocarcinoma (MDA-MB-231cell lines), human breast cancer (MCF-7 cell lines), human colorectal adenocarcinoma (Caco2 cell lines), human colon cell line (HCT-116 cell lines), normal human cell lines (BJ-1), and “a telomerase immortalized normal foreskin fibroblast cell line” were obtained from Karolinska Center, Department of Oncology and Pathology, Karolinska Institute and Hospital, Stockholm, Sweden.
(§2) Following culturing for 10 days, the cells were seeded at concentration of 10 × 10^3 cells per well in case of MCF-7 & MDA, 20 × 10^3 cells/well in a fresh complete growth medium in case of HCT-116, Caco2, & HOS and 40 × 10^3 cells/well in case of BJ-1 at 37 °C for 24 h in a water jacketed carbon dioxide incubator. After 48 h’ incubation, the medium was aspirated, and then 40 μl MTT salt (2.5 mg/mL) were added for a further 4 h; 200 μl 10% sodium dodecyl sulphate (SDS) in deionized water were added to each well and incubated overnight at 37 °C. The absorbance was measured at 595 nm with reference 690 nm. Doxorubicin was used as positive control, and 0.5% DMSO was used as negative control. IC50 values were calculated, using a probit analysis, and by utilizing the SPSS computer program (SPSS for Windows, statistical analysis software package/version 9/1989 SPSS Inc., Chicago, IL, USA).

Data set [2] has as its system human breast cancer (MCF-7 cell lines). Nature of the data set: MTT cytotoxicity assay, MCF-7. It counts as cell-based. Particulars: for cytotoxicity at 100 µM: MCF7, 48 h; for IC50: MCF7, MTT, 0.78–100 µM, ± SD. The procedure: (§3) The synthesized compounds were studied for their cytotoxic activity against several human cancer cell lines, namely human osteosarcoma (HOS cell lines), human breast adenocarcinoma (MDA-MB-231 cell lines), human breast cancer (MCF-7 cell lines), human colorectal adenocarcinoma (Caco-2 cell lines) and human colon cell line (HCT-116 cell lines) using MTT assay at 100 µM, and the results were outlined as shown in Table 1.
as §1, §2

Data set [3] relates to human osteosarcoma (HOS cell lines). The data set can be described thus: MTT cytotoxicity assay, HOS. It counts as cell-based. Particulars: 48 h. The procedure: as §3, §1, §2
Background: Formazan colour is commonly taken as a measure of viable cells.

Data set [4] has as its system human breast adenocarcinoma (MDA-MB-231 cell lines). Nature of the data set: MTT cytotoxicity assay, MDA-MB-231. Conditions: MDA-MB-231, 48 h. In kind it is cell-based. The protocol: as §3, §1, §2
Data set [5] has as its system human colorectal adenocarcinoma (Caco-2 cell lines). The data set can be described thus: MTT cytotoxicity assay, Caco-2. Conditions: Caco-2, 48 h. It counts as cell-based. The protocol: as §3, §1, §2
In data set [6] the test system is human colon cell line (HCT-116 cell lines). Nature of the data set: MTT cytotoxicity assay, HCT-116. Particulars: for cytotoxicity at 100 µM: HCT-116, 48 h. It counts as cell-based. The protocol:
as §3, §1, §2

The target in another data set is CDK-2/cyclin A2 (Homo sapiens, UniProt P24941). The data set can be described thus: CDK-2/cyclin A2 inhibitory assay (ELISA). Conditions: for IC50: mean of three values, read-out: IC50 (Mean ± SEM), CDK-2/Cyclin A2. It counts as biochemical. The procedure:
Assay of CDK-2/cyclin A2 was achieved through ELISA using an affinity tag labeled capture antibody. […] After the incubation period, the unrestrained substance has been discarded, and the wells have been washed. The added TMB (3,3′,5,5′-tetramethylbenzidine) substrate was prompted by Horseradish peroxidase (HRP), and blue coloration appeared. This reaction was stopped through the addition of stop solution to complete changing in colour from blue to yellow. The created signals were equivalent to the quantity of bound analyte, and the Robonik P2000 ELISA reader was used to record the intensity at a certain wavelength (450 nm).
(ELISA stands for enzyme-linked immunosorbent assay.)

The target in a further data set is EGFR (Homo sapiens, UniProt P00533). Nature of the data set: EGFR kinase inhibitory assay (Kinase-Glo Max luminescence). It counts as biochemical. Particulars: for IC50: mean of three values, read-out: IC50 (Mean ± SEM), EGFR. Background: Kinase-Glo reads ATP consumption through a luciferase reaction.
Sequence of EGFR (P00533 25-1210): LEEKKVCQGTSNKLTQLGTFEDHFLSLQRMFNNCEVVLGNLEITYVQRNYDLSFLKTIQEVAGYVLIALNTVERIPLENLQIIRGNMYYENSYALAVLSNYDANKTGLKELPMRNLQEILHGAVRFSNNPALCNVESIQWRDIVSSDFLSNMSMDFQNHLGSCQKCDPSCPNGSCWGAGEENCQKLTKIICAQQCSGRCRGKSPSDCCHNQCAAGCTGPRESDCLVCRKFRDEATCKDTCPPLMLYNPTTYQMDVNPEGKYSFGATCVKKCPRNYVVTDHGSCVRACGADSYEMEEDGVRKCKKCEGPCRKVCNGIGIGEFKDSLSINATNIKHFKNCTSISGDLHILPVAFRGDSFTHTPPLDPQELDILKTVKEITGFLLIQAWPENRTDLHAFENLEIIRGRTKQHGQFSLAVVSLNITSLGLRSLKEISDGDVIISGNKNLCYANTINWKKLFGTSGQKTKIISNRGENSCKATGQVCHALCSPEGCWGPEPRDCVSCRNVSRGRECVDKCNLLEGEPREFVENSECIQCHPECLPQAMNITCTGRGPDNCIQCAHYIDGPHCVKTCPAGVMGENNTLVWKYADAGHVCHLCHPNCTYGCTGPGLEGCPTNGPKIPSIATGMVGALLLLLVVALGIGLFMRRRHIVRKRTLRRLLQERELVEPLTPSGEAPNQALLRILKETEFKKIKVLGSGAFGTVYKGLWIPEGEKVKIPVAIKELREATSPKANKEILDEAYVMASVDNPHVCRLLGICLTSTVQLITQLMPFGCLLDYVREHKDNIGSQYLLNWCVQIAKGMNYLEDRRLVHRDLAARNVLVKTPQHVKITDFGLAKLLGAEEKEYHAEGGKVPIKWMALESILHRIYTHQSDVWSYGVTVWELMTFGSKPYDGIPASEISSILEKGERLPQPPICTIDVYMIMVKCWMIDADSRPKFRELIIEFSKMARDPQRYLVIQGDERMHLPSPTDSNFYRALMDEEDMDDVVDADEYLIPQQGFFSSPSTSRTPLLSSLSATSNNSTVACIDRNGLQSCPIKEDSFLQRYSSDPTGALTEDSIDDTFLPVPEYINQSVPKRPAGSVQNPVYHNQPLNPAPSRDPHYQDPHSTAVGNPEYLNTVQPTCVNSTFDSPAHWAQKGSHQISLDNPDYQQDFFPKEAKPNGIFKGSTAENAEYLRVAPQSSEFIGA
For the next data set, the target named is VEGFR-2 (Homo sapiens, UniProt P35968). The data set can be described thus: VEGFR-2 inhibitory assay (ELISA). In kind it is biochemical. Conditions: for IC50: mean of three values, read-out: IC50 (Mean ± SEM), VEGFR-2. The procedure:
The cells were harvested, and the homogenates were prepared in saline using a tight pestle homogenizer until complete cell disruption. The kit uses a double-antibody sandwich enzyme-linked immunosorbent assay (ELISA) to determine the level of human VEGFR-2 in samples. A monoclonal antibody for VEGFR-2 was pre-coated onto 96-well plates. The test samples are added to the wells, and a biotinylated detection polyclonal antibody from goat specific for VEGFR-2 was added subsequently followed by washing with PBS buffer. Avidin-Biotin-Peroxidase complex was added, and the unbound conjugates were washed away with PBS buffer. HRP substrate TMB was used to visualize HRP enzymatic reaction. TMB was catalyzed by HRP to produce a blue color product that changed into yellow after adding acidic stop solution. The density of yellow color is proportional to the human VEGFR-2 amount of the sample captured in the plate. The chroma of color and the concentration of the human VEGFR-2 of the samples were positively correlated, and the optical density was determined at 450 nm. The level of human VEGFR-2 in samples was calculated (pg/ml) as duplicate determinations from the standard curve. Percent inhibition was calculated in comparison to control untreated cells.

Sequence of VEGFR-2 (P35968 20-1356): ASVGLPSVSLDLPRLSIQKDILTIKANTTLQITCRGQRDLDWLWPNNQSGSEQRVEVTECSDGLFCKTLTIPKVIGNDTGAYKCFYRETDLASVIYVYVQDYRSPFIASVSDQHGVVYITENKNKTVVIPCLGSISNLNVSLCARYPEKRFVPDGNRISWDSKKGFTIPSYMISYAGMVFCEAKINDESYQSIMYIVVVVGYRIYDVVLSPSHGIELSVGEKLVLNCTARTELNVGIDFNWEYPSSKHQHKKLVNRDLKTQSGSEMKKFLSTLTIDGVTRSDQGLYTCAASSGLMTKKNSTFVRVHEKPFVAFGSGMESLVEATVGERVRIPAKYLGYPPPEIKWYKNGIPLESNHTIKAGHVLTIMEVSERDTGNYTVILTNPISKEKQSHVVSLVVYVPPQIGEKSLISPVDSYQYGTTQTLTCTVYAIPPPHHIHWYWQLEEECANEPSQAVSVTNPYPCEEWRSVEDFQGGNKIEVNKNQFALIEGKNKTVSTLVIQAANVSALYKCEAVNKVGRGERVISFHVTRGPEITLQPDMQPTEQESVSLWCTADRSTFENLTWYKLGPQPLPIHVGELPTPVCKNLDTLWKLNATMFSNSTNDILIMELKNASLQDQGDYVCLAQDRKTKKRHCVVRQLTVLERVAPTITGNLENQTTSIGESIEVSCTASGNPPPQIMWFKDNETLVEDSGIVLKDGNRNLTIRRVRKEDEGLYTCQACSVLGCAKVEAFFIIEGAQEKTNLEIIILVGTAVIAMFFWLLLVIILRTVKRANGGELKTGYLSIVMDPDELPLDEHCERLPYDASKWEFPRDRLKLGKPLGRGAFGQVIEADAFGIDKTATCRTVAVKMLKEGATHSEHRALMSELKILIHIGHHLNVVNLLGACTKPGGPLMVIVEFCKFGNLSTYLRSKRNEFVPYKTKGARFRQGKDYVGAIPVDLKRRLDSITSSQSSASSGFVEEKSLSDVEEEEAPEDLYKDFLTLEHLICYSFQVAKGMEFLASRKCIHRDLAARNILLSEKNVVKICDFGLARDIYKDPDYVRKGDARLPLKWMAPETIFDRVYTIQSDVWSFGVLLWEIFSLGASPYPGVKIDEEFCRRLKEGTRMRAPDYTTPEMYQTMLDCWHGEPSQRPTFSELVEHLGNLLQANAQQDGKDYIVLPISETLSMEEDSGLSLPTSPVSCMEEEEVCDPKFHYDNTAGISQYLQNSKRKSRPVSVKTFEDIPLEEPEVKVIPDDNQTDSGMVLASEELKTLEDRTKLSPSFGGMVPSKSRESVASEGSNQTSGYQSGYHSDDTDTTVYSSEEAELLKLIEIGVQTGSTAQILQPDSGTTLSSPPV

Molecule `CCn1c(COc2ccc3c(-c4ccccc4)cc(=O)oc3c2)nnc1SCC(O)CO` (stereo not shown) [Compound 14, 4-Phenyl-7-((5-((2,3-dihydroxypropyl)thio)-4-ethyl-4H-1,2,4-triazol-3-yl)methoxy)-2H-chromen-2-one] registered a melting point of 180 to 181 °C. The “Toxicity on normal skin cells BJ-1 (in words)” value (from here on “Toxicity … (in words)”) in [1] is “high toxicity”. In data set [2], this molecule showed a cytotoxicity at 100 µM of 98.1 ± 0.3%. Besides, the cytotoxicity at 100 µM in data set [3] turned out to be 90.5 ± 1.1%. In data set [4], this molecule registered a cytotoxicity at 100 µM of 97.8 ± 0.7%. In data set [5], this molecule yielded a cytotoxicity at 100 µM of 91.2 ± 2.1%. The molecule further returned a cytotoxicity at 100 µM in data set [6] of 95.2 ± 0.9%.
As for `O=c1cc(-c2ccccc2)c2ccc(OCCCCn3cc(CO[C@@H]4O[C@H](CO)[C@H](O)[C@H](O)[C@H]4O)nn3)cc2o1` [Compound 26], the melting point was 195 to 196 °C. Further, the “Toxicity … (in words)” value in data set [1] is listed as “high toxicity”. The cytotoxicity at 100 µM in [2] was found to be 91.8 ± 1.2%. Also, the cytotoxicity at 100 µM in data set [3] is 66.9 ± 2.2%. In data set [4], this molecule registered a cytotoxicity at 100 µM of 31.4 ± 0.5%. Also, the cytotoxicity at 100 µM in data set [5] worked out at 2.6 ± 0.2%. Also, the cytotoxicity at 100 µM in data set [6] is 83.9 ± 0.9%.
`CCn1c(COc2ccc3c(-c4ccccc4)cc(=O)oc3c2)nnc1SCCOCCO` [Compound 12, 4-Phenyl-7-((4-ethyl-5-((2-(2-hydroxyethoxy)ethyl)thio)-4H-1,2,4-triazol-3-yl)methoxy)-2H-chromen-2-one] returned a melting point of 152 to 153 °C. Moreover, the “Toxicity … (in words)” value in data set [1] is “high toxicity”. Besides, the cytotoxicity at 100 µM in [2] stood at 97.6 ± 0.9%. For the same molecule, in data set [3], the cytotoxicity at 100 µM was found to be 97.2 ± 1.3%. This molecule came in with a cytotoxicity at 100 µM in [4] of 91.2 ± 0.8%. In data set [5], this molecule gave a cytotoxicity at 100 µM of 92 ± 1.3%. The cytotoxicity at 100 µM in data set [6] turned out to be 84.4 ± 0.8%.
As for `CC(=O)O[C@@H]1[C@@H](OC(C)=O)[C@H](OCc2cn(CCCOc3ccc4c(-c5ccccc5)cc(=O)oc4c3)nn2)OC[C@H]1OC(C)=O` [Compound 22], the melting point was in the range of 127 to 128 °C. In addition, in data set [1], the “Toxicity … (in words)” value is listed as “high toxicity”. In data set [2], the cytotoxicity at 100 µM stood at 91.9 ± 0.8%. This molecule had a cytotoxicity at 100 µM in data set [3] of 90.6 ± 1.5%. Further, the cytotoxicity at 100 µM in [4] was 97.1 ± 1.1%. Moreover, the cytotoxicity at 100 µM in data set [5] stood at 57.5 ± 0.5%. Also, the cytotoxicity at 100 µM in [6] was determined as 97.3 ± 0.8%.
Turning to `CC(=O)OC[C@H]1O[C@@H](OCc2cn(CCCOc3ccc4c(-c5ccccc5)cc(=O)oc4c3)nn2)[C@H](OC(C)=O)[C@@H](OC(C)=O)[C@H]1OC(C)=O` [Compound 21], the melting point lay in the range of 114 to 115 °C. On CDK-2/cyclin A2, the “Inhibitory activity against CDK-2/cyclin A2 (in words)” value was “no inhibitory activities” and the IC50 came out at 211 ± 0.05 µM. Moreover, on EGFR, the “Inhibitory activity against EGFR (in words)” value was “no inhibitory activities” and the IC50 is 123 ± 0.1 µM. In [2], this molecule had a cytotoxicity at 100 µM of 85.4 ± 1.8% and an IC50 of 38.9 ± 0.8 µM. The cytotoxicity at 100 µM in data set [3] came out at 58.3 ± 1.7%. For the same molecule, in [4], the cytotoxicity at 100 µM stood at 26.4 ± 0.3%. The molecule also registered a cytotoxicity at 100 µM in [5] of 59.2 ± 1.1%. In data set [6], this molecule came in with a cytotoxicity at 100 µM of 64.9 ± 0.5%. Moreover, the IC50 in [6] (HCT-116, MTT, 0.78–100 µM, ± SD) came to 82.8 ± 2.3 µM. In addition, at VEGFR-2, the “Inhibitory activity against VEGFR-2 (in words)” value was “no inhibitory activities” and the IC50 stood at 172 ± 0.02 µM.
With `Cn1c(COc2ccc3c(-c4ccccc4)cc(=O)oc3c2)nnc1SC1OCC(O)C(O)C1O` [Compound 8, 4-Phenyl-7-((4-methyl-5-(1-(β-D-xylopyranosyl)thio)-4H-1,2,4-triazol-3-yl)meth-oxy)-2H-chromen-2-one], the melting point lay in the range of 231 to 232 °C. Besides, the IC50 on CDK-2/cyclin A2 came out at 0.24 ± 0.2 µM. Moreover, the IC50 at EGFR was determined as 0.22 ± 0.01 µM. Further, in data set [2], the cytotoxicity at 100 µM turned out to be 60.1 ± 0.7% and the IC50 was 52.2 ± 1.3 µM. Also, the cytotoxicity at 100 µM in data set [3] is 41.9 ± 0.7%. This molecule came in with a cytotoxicity at 100 µM in data set [4] of 37.1 ± 2.3%. Besides, the cytotoxicity at 100 µM in data set [5] is 28.4 ± 0.6%. This molecule displayed a cytotoxicity at 100 µM in data set [6] of 23 ± 0.6%. Moreover, the IC50 at VEGFR-2 was found to be 0.93 ± 0.42 µM.
For `O=c1cc(-c2ccccc2)c2ccc(OCCCn3cc(CO[C@@H]4OC[C@@H](O)[C@H](O)[C@H]4O)nn3)cc2o1` [Compound 25], the melting point was in the range of 188 to 189 °C. In [1], the “Toxicity … (in words)” value is “high toxicity”. In data set [2], the cytotoxicity at 100 µM came to 81.9 ± 0.9%. The cytotoxicity at 100 µM in [3] is 90.4 ± 0.8%. Besides, the cytotoxicity at 100 µM in [4] came to 94.2 ± 2.2%. The molecule further gave a cytotoxicity at 100 µM in data set [5] of 82.7 ± 1.1%. This molecule also registered a cytotoxicity at 100 µM in [6] of 97.1 ± 1.1%.
On to `O=c1cc(-c2ccccc2)c2ccc(OCCCn3cc(CO[C@@H]4O[C@H](CO)[C@H](O)[C@H](O)[C@H]4O)nn3)cc2o1` [Compound 24], for which the melting point is 190 to 191 °C. Further, in [1], the “Toxicity … (in words)” value was “high toxicity”. Moreover, in data set [2], the cytotoxicity at 100 µM was 88.2 ± 1.1%. In data set [3], this molecule yielded a cytotoxicity at 100 µM of 97.6 ± 1.3%. This molecule had a cytotoxicity at 100 µM in [4] of 97.7 ± 0.8%. Also, the cytotoxicity at 100 µM in data set [5] was 86.5 ± 0.9%. In data set [6], the cytotoxicity at 100 µM was found to be 99.1 ± 0.8%.
`Cn1c(COc2ccc3c(-c4ccccc4)cc(=O)oc3c2)nnc1SCCOCCO` [Compound 11, 4-Phenyl-7-((5-((2-(2-hydroxyethoxy)ethyl)thio)-4-methyl-4H-1,2,4-triazol-3-yl)methoxy)-2H-chromen-2-one] gave a melting point of 155 to 156 °C. Further, the “Toxicity … (in words)” value in [1] is on record as “high toxicity”. This molecule also showed a cytotoxicity at 100 µM in [2] of 86.7 ± 0.7%. The same molecule registered a cytotoxicity at 100 µM in data set [3] of 39.7 ± 0.8%. The same molecule came in with a cytotoxicity at 100 µM in data set [4] of 62.4 ± 0.7%. In [5], this molecule showed a cytotoxicity at 100 µM of 19.1 ± 0.4%. For the same molecule, the cytotoxicity at 100 µM in data set [6] amounted to 91.7 ± 1.1%.

As a reminder, the melting point is the temperature, or range, at which the solid turns liquid.
